Test results published in PMC10364322, “Evaluation of chronic drug-induced electrophysiological and cytotoxic effects using human-induced pluripotent stem cell-derived cardiomyocytes (hiPSC-CMs)” (Frontiers in Pharmacology, 2023).
Where two headings read alike, the source gives them in different places.

System: hiPSC-CMs (iCell-Cardiomyocytes^2)
How it was run: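 Monolayers of hiPSC-CMs on fibronectin-coated MEA plates, 50 K/well, kept at 37°C, 5% CO2; compounds added in 0.1% final DMSO after 5-min baseline. Field potential and impedance parameters expressed as mean ± SD percent change from baseline; arrhythmic events noted; cytotoxicity fluorescence normalized to DMSO, Kruskal-Wallis.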

SMILES: COc1cccc2c1C(=O)c1c(O)c3c(c(O)c1C2=O)C[C@@](O)(C(=O)CO)C[C@@H]3O[C@H]1C[C@H](N)[C@H](O)[C@H](C)O1 [Doxorubicin]
- BR (beating rate), % change from baseline (0.1 µM, 2h): 7±3%
- Beating below threshold, number of observations/total well numbers (0.1 µM, 2h): 0/5
- Cessation of beating, number of observations/total well numbers (0.1 µM, 2h): 0/5
- EAD, number of observations/total well numbers (0.1 µM, 2h): 0/5
- FPD (field-potential duration), % change from baseline (0.1 µM, 2h): -0.9±3.5%
- FPDc (field-potential duration corrected by beat-rate), % change from baseline (0.1 µM, 2h): 1.2±2.7%
- Flat T-wave-like, number of observations/total well numbers (0.1 µM, 2h): 0/5
- BR (beating rate), % change from baseline (0.1 µM, 24h): 41±12 %
- Beating below threshold, number of observations/total well numbers (0.1 µM, 24h): 0/5
- Cessation of beating, number of observations/total well numbers (0.1 µM, 24h): 0/5
- EAD, number of observations/total well numbers (0.1 µM, 24h): 0/5
- FPD (field-potential duration), % change from baseline (0.1 µM, 24h): -18.2±8.6 %
- FPDc (field-potential duration corrected by beat-rate), % change from baseline (0.1 µM, 24h): -8.8±6.9 %
- Flat T-wave-like, number of observations/total well numbers (0.1 µM, 24h): 0/5
- BR (beating rate), % change from baseline (0.1 µM, 48h): 26±8 %
- Beating below threshold, number of observations/total well numbers (0.1 µM, 48h): 0/5
- Cessation of beating, number of observations/total well numbers (0.1 µM, 48h): 0/5
- EAD, number of observations/total well numbers (0.1 µM, 48h): 0/5
- FPD (field-potential duration), % change from baseline (0.1 µM, 48h): -24.4±9.8 %
- FPDc (field-potential duration corrected by beat-rate), % change from baseline (0.1 µM, 48h): -18.8±8.7 %
- Flat T-wave-like, number of observations/total well numbers (0.1 µM, 48h): 0/5
- BR (beating rate), % change from baseline (0.1 µM, 72h): 22±6 %
- Beating below threshold, number of observations/total well numbers (0.1 µM, 72h): 0/5
- Cessation of beating, number of observations/total well numbers (0.1 µM, 72h): 0/5
- EAD, number of observations/total well numbers (0.1 µM, 72h): 0/5
- FPD (field-potential duration), % change from baseline (0.1 µM, 72h): -25±8.7 %
- FPDc (field-potential duration corrected by beat-rate), % change from baseline (0.1 µM, 72h): -20.4±8.9 %
- Flat T-wave-like, number of observations/total well numbers (0.1 µM, 72h): 1/5
- BR (beating rate), % change from baseline (0.1 µM, 96h): -7±13%
- Beating below threshold, number of observations/total well numbers (0.1 µM, 96h): 0/5
- Cessation of beating, number of observations/total well numbers (0.1 µM, 96h): 0/5
- EAD, number of observations/total well numbers (0.1 µM, 96h): 0/5
- FPD (field-potential duration), % change from baseline (0.1 µM, 96h): -11.7±0.4 %
- FPDc (field-potential duration corrected by beat-rate), % change from baseline (0.1 µM, 96h): -16.2±0.1 %
- Flat T-wave-like, number of observations/total well numbers (0.1 µM, 96h): 3/5
- time point from which cessation of beating occurred in all wells (0.3 µM): 48 h
- BR (beating rate), % change from baseline (0.3 µM, 2h): 2±2%
- Beating below threshold, number of observations/total well numbers (0.3 µM, 2h): 0/5
- Cessation of beating, number of observations/total well numbers (0.3 µM, 2h): 0/5
- EAD, number of observations/total well numbers (0.3 µM, 2h): 0/5
- FPD (field-potential duration), % change from baseline (0.3 µM, 2h): 2.2±0.8%
- FPDc (field-potential duration corrected by beat-rate), % change from baseline (0.3 µM, 2h): 2.8±1.1%
- Flat T-wave-like, number of observations/total well numbers (0.3 µM, 2h): 0/5
- BR (beating rate), % change from baseline (0.3 µM, 24h): 24±8 %
- Beating below threshold, number of observations/total well numbers (0.3 µM, 24h): 0/5
- Cessation of beating, number of observations/total well numbers (0.3 µM, 24h): 0/5
- EAD, number of observations/total well numbers (0.3 µM, 24h): 0/5
- FPD (field-potential duration), % change from baseline (0.3 µM, 24h): -21±2.9 %
- FPDc (field-potential duration corrected by beat-rate), % change from baseline (0.3 µM, 24h): -14.6±1.7 %
- Flat T-wave-like, number of observations/total well numbers (0.3 µM, 24h): 2/5
- BR (beating rate), % change from baseline (0.3 µM, 48h): 40±8 %
- Beating below threshold, number of observations/total well numbers (0.3 µM, 48h): 0/5
- Cessation of beating, number of observations/total well numbers (0.3 µM, 48h): 2/5
- EAD, number of observations/total well numbers (0.3 µM, 48h): 0/5
- Flat T-wave-like, number of observations/total well numbers (0.3 µM, 48h): 3/5
- BR (beating rate), % change from baseline (0.3 µM, 72h): 39±0 %
- Beating below threshold, number of observations/total well numbers (0.3 µM, 72h): 0/5
- Cessation of beating, number of observations/total well numbers (0.3 µM, 72h): 4/5
- EAD, number of observations/total well numbers (0.3 µM, 72h): 0/5
- Flat T-wave-like, number of observations/total well numbers (0.3 µM, 72h): 1/5
- Beating below threshold, number of observations/total well numbers (0.3 µM, 96h): 0/5
- Cessation of beating, number of observations/total well numbers (0.3 µM, 96h): 5/5
- EAD, number of observations/total well numbers (0.3 µM, 96h): 0/5
- Flat T-wave-like, number of observations/total well numbers (0.3 µM, 96h): 0/5
- time point from which cessation of beating occurred in all wells (1 µM): 48 h
- BR (beating rate), % change from baseline (1 µM, 2h): 3±2%
- Beating below threshold, number of observations/total well numbers (1 µM, 2h): 0/5
- Cessation of beating, number of observations/total well numbers (1 µM, 2h): 0/5
- EAD, number of observations/total well numbers (1 µM, 2h): 0/5
- FPD (field-potential duration), % change from baseline (1 µM, 2h): 2.8±3.4%
- FPDc (field-potential duration corrected by beat-rate), % change from baseline (1 µM, 2h): 4.2±3%
- Flat T-wave-like, number of observations/total well numbers (1 µM, 2h): 0/5
- BR (beating rate), % change from baseline (1 µM, 24h): 68±21 %
- Beating below threshold, number of observations/total well numbers (1 µM, 24h): 0/5
- Cessation of beating, number of observations/total well numbers (1 µM, 24h): 0/5
- EAD, number of observations/total well numbers (1 µM, 24h): 0/5
- Flat T-wave-like, number of observations/total well numbers (1 µM, 24h): 4/5
- Beating below threshold, number of observations/total well numbers (1 µM, 48h): 0/5
- Cessation of beating, number of observations/total well numbers (1 µM, 48h): 5/5
- EAD, number of observations/total well numbers (1 µM, 48h): 0/5
- Flat T-wave-like, number of observations/total well numbers (1 µM, 48h): 0/5
- Beating below threshold, number of observations/total well numbers (1 µM, 72h): 0/5
- Cessation of beating, number of observations/total well numbers (1 µM, 72h): 5/5
- EAD, number of observations/total well numbers (1 µM, 72h): 0/5
- Flat T-wave-like, number of observations/total well numbers (1 µM, 72h): 0/5
- Beating below threshold, number of observations/total well numbers (1 µM, 96h): 0/5
- Cessation of beating, number of observations/total well numbers (1 µM, 96h): 5/5
- EAD, number of observations/total well numbers (1 µM, 96h): 0/5
- Flat T-wave-like, number of observations/total well numbers (1 µM, 96h): 0/5
- time point from which cessation of beating occurred in all wells (3 µM): 24 h
- Beating below threshold, number of observations/total well numbers (3 µM, 72h): 0/5
- Cessation of beating, number of observations/total well numbers (3 µM, 72h): 5/5
- EAD, number of observations/total well numbers (3 µM, 72h): 0/5
- Flat T-wave-like, number of observations/total well numbers (3 µM, 72h): 0/5
- Beating below threshold, number of observations/total well numbers (3 µM, 96h): 0/5
- Cessation of beating, number of observations/total well numbers (3 µM, 96h): 5/5
- EAD, number of observations/total well numbers (3 µM, 96h): 0/5
- Flat T-wave-like, number of observations/total well numbers (3 µM, 96h): 0/5
- BR (beating rate), % change from baseline (3 µM, 2h): 1±2%
- Beating below threshold, number of observations/total well numbers (3 µM, 2h): 0/5
- Cessation of beating, number of observations/total well numbers (3 µM, 2h): 0/5
- EAD, number of observations/total well numbers (3 µM, 2h): 0/5
- FPD (field-potential duration), % change from baseline (3 µM, 2h): 3.9±2.4%
- FPDc (field-potential duration corrected by beat-rate), % change from baseline (3 µM, 2h): 4.3±2.4%
- Flat T-wave-like, number of observations/total well numbers (3 µM, 2h): 0/5
- BR (beating rate), % change from baseline (3 µM, 24h): 41±36 %
- Beating below threshold, number of observations/total well numbers (3 µM, 24h): 0/5
- Cessation of beating, number of observations/total well numbers (3 µM, 24h): 1/5
- EAD, number of observations/total well numbers (3 µM, 24h): 0/5
- FPD (field-potential duration), % change from baseline (3 µM, 24h): -15.8±3.8 %
- FPDc (field-potential duration corrected by beat-rate), % change from baseline (3 µM, 24h): -2.9±4.7 %
- Flat T-wave-like, number of observations/total well numbers (3 µM, 24h): 2/5
- Beating below threshold, number of observations/total well numbers (3 µM, 48h): 0/5
- Cessation of beating, number of observations/total well numbers (3 µM, 48h): 5/5
- EAD, number of observations/total well numbers (3 µM, 48h): 0/5
- Flat T-wave-like, number of observations/total well numbers (3 µM, 48h): 0/5
